{
  "source": "ChEMBL document CHEMBL1124256",
  "about": "“Enantiomeric effects of homologues of disoxaril on the inhibitory activity against human rhinovirus-14” (1988)",
  "data": [
    {"system": "Human rhinovirus sp.", "assay": "In vitro minimum inhibitory concentration against human rhinovirus-14 (HRV-14)", "assay_type": "functional", "units": {"MIC": "µg/mL"}, "values": [
      {"compound": "Cc1cc(CCCCCCCOc2ccc(C3=N[C@@H](C)CO3)cc2)on1", "MIC": 0.02},
      {"compound": "CC[C@@H]1COC(c2ccc(OCCCCCCCc3cc(C)no3)cc2)=N1", "MIC": 0.06},
      {"compound": "CCCC[C@H]1COC(c2ccc(OCCCCCCCc3cc(C)no3)cc2)=N1", "MIC": 0.06},
      {"compound": "Cc1cc(CCCCCCCOc2ccc(C3=N[C@@H](C(C)C)CO3)cc2)on1", "MIC": 0.03},
      {"compound": "CCC[C@H]1COC(c2ccc(OCCCCCCCc3cc(C)no3)cc2)=N1", "MIC": 0.01},
      {"compound": "CCC[C@@H]1COC(c2ccc(OCCCCCCCc3cc(C)no3)cc2)=N1", "MIC": 0.07},
      {"compound": "Cc1cc(CCCCCCCOc2ccc(C3=N[C@H](C(C)C)CO3)cc2)on1", "MIC": 0.13},
      {"compound": "CCCC[C@@H]1COC(c2ccc(OCCCCCCCc3cc(C)no3)cc2)=N1", "MIC": 0.52},
      {"compound": "CC[C@H]1COC(c2ccc(OCCCCCCCc3cc(C)no3)cc2)=N1", "MIC": 0.01},
      {"compound": "Cc1cc(CCCCCCCOc2ccc(C3=N[C@H](C)CO3)cc2)on1", "MIC": 0.2},
      {"compound": "Cc1cc(CCCCCCCOc2ccc(C3=NC(C)CO3)cc2)on1", "note": "(stereo not drawn)", "MIC": 0.03},
      {"compound": "Cc1cc(CCCCCCCOc2ccc(C3=NC(C)(C)CO3)cc2)on1", "MIC": 0.03},
      {"compound": "Cc1cc(CCCCCCCOc2ccc(C3=NCCO3)cc2)on1", "note": "[DISOXARIL]", "MIC": 0.14}
    ]}
  ]
}
